From patent US20200370087A1, “METHOD FOR DETERMINING MICROBIAL SUSCEPTIBILITY TO ANTIBIOTIC AGENTS” (Ascilion AB, priority 2017, published 2020)
In brackets after ≈: the same amount, converted by molar mass. Where two headings read alike, the source gives them in different places. Values belong to the compound of their own block, whether it stands above or below them.

Key:
[1] = system: Enterococcus faecalis (ATCC 29212); test: Glucose consumption susceptibility test, blood culture diluted in MHB with glucose (Example 1); assay type: cell-based; design: glucose concentration, t = 0 / glucose concentration, t = 60 / glucose concentration, t = 120 / glucose concentration, t = 180 / glucose concentration, t = 240 / dC/dT (rate of change in glucose concentration): unit not given here; details: for glucose concentration, t = 0: 0 minutes; for glucose concentration, t = 60: 60 minutes; for glucose concentration, t = 120: 120 minutes; for glucose concentration, t = 180: 180 minutes; for glucose concentration, t = 240: 240 minutes; for MIC: Enterococcus faecalis
Summary of the method: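 Blood cultures grown to positivity were diluted 1:100 in cation-adjusted Mueller-Hinton broth with 1.0 mg/mL glucose. Glucose was read by glucometer at 0–240 min.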

[2] = system: Enterococcus faecalis ATCC 29212; details: E.faecalis, cited from earlier work
[3] = system: Escherichia coli ATCC 25922; details: E.coli, cited from earlier work
[4] = E. faecalis, antibiotic 0.0625 μg/mL
[5] = E. faecalis, antibiotic 0.125 μg/mL
[6] = E. faecalis, antibiotic 0.25 μg/mL
[7] = E. faecalis, antibiotic 0.5 μg/mL
[8] = E. faecalis, antibiotic 1 μg/mL
[9] = E. faecalis, antibiotic 2 μg/mL
[10] = E. faecalis, antibiotic 4 μg/mL
[11] = E. faecalis, antibiotic 8 μg/mL
[12] = range obtained by EUCAST from ISO 20776-1: 2006
[13] = reference value, Mueller-Hinton agar, incubation 18±2 h, N/A = not susceptible
[14] = E. faecalis, antibiotic 16 μg/mL
[15] = E. faecalis, antibiotic 32 μg/mL

Compound: CN[C@H](CC(C)C)C(=O)N[C@H]1C(=O)N[C@@H](CC(N)=O)C(=O)N[C@H]2C(=O)N[C@H]3C(=O)N[C@H](C(=O)N[C@H](C(=O)O)c4cc(O)cc(O)c4-c4cc3ccc4O)[C@H](O)c3ccc(c(Cl)c3)Oc3cc2cc(c3O[C@@H]2O[C@H](CO)[C@@H](O)[C@H](O)[C@H]2O[C@H]2C[C@](C)(N)[C@H](O)[C@H](C)O2)Oc2ccc(cc2Cl)[C@H]1O [Vancomycin, vancomycin]
F = the rate of change in glucose concentration in relation to the reference [1, 4]: 93% | dC/dT (rate of change in glucose concentration) [1, 4]: 34 | glucose concentration, t = 0 [1, 4]: 145 | glucose concentration, t = 60 [1, 4]: 156 | glucose concentration, t = 120 [1, 4]: 139 | glucose concentration, t = 180 [1, 4]: 89 | F = the rate of change in glucose concentration in relation to the reference [1, 5]: 83% | dC/dT (rate of change in glucose concentration) [1, 5]: 30 | glucose concentration, t = 0 [1, 5]: 148 | glucose concentration, t = 60 [1, 5]: 154 | glucose concentration, t = 120 [1, 5]: 149 | glucose concentration, t = 180 [1, 5]: 94 | F = the rate of change in glucose concentration in relation to the reference [1, 6]: 82% | dC/dT (rate of change in glucose concentration) [1, 6]: 30 | glucose concentration, t = 0 [1, 6]: 143 | glucose concentration, t = 60 [1, 6]: 155 | glucose concentration, t = 120 [1, 6]: 146 | glucose concentration, t = 180 [1, 6]: 96 | F = the rate of change in glucose concentration in relation to the reference [1, 7]: 82% | dC/dT (rate of change in glucose concentration) [1, 7]: 30 | glucose concentration, t = 0 [1, 7]: 154 | glucose concentration, t = 60 [1, 7]: 155 | glucose concentration, t = 120 [1, 7]: 148 | glucose concentration, t = 180 [1, 7]: 96 | F = the rate of change in glucose concentration in relation to the reference [1, 8]: 75% | dC/dT (rate of change in glucose concentration) [1, 8]: 27 | glucose concentration, t = 0 [1, 8]: 151 | glucose concentration, t = 60 [1, 8]: 164 | glucose concentration, t = 120 [1, 8]: 153 | glucose concentration, t = 180 [1, 8]: 110 | F = the rate of change in glucose concentration in relation to the reference [1, 9]: 29% | dC/dT (rate of change in glucose concentration) [1, 9]: 11 | glucose concentration, t = 0 [1, 9]: 147 | glucose concentration, t = 60 [1, 9]: 160 | glucose concentration, t = 120 [1, 9]: 152 | glucose concentration, t = 180 [1, 9]: 139 | glucose concentration, t = 240 [1, 9]: 94 | F = the rate of change in glucose concentration in relation to the reference [1, 10]: 19% | dC/dT (rate of change in glucose concentration) [1, 10]: 7 | glucose concentration, t = 0 [1, 10]: 147 | glucose concentration, t = 60 [1, 10]: 162 | glucose concentration, t = 120 [1, 10]: 153 | glucose concentration, t = 180 [1, 10]: 148 | glucose concentration, t = 240 [1, 10]: 149 | F = the rate of change in glucose concentration in relation to the reference [1, 11]: 7% | dC/dT (rate of change in glucose concentration) [1, 11]: 3 | glucose concentration, t = 0 [1, 11]: 150 | glucose concentration, t = 60 [1, 11]: 156 | glucose concentration, t = 120 [1, 11]: 146 | glucose concentration, t = 180 [1, 11]: 151 | glucose concentration, t = 240 [1, 11]: 145 | MIC ([1]; ATCC29212, read-out: MIC, Measured): 1 mg/L (≈ 0.69 µM) | MIC, EUCAST, range in parentheses [2, 12]: (1-4) ug/mL | MIC, EUCAST [2, 13]: 2 mg/L (≈ 1.38 µM)

MIC ([1]; ATCC29212, E. faecalis, 80% threshold, disregarded as rate of decrease was higher at 32 μg/mL, read-out: MIC value initially obtained (disregarded)): 4 mg/L (≈ 9.36 µM)
Compound: CO[C@@]1(NC(=O)Cc2cccs2)C(=O)N2C(C(=O)O)=C(COC(N)=O)CS[C@@H]21 [Cefoxitin, cefoxitin]
F = the rate of change in glucose concentration in relation to the reference [1, 6]: 93% | dC/dT (rate of change in glucose concentration) [1, 6]: 34 | glucose concentration, t = 0 [1, 6]: 151 | glucose concentration, t = 60 [1, 6]: 155 | glucose concentration, t = 120 [1, 6]: 138 | glucose concentration, t = 180 [1, 6]: 88 | glucose concentration, t = 240 [1, 6]: 34 | F = the rate of change in glucose concentration in relation to the reference [1, 7]: 88% | dC/dT (rate of change in glucose concentration) [1, 7]: 32 | glucose concentration, t = 0 [1, 7]: 145 | glucose concentration, t = 60 [1, 7]: 150 | glucose concentration, t = 120 [1, 7]: 144 | glucose concentration, t = 180 [1, 7]: 87 | glucose concentration, t = 240 [1, 7]: 32 | F = the rate of change in glucose concentration in relation to the reference [1, 8]: 85% | dC/dT (rate of change in glucose concentration) [1, 8]: 31 | glucose concentration, t = 0 [1, 8]: 148 | glucose concentration, t = 60 [1, 8]: 159 | glucose concentration, t = 120 [1, 8]: 142 | glucose concentration, t = 180 [1, 8]: 98 | glucose concentration, t = 240 [1, 8]: 31 | F = the rate of change in glucose concentration in relation to the reference [1, 9]: 99% | dC/dT (rate of change in glucose concentration) [1, 9]: 36 | glucose concentration, t = 0 [1, 9]: 149 | glucose concentration, t = 60 [1, 9]: 169 | glucose concentration, t = 120 [1, 9]: 145 | glucose concentration, t = 180 [1, 9]: 98 | glucose concentration, t = 240 [1, 9]: 36 | F = the rate of change in glucose concentration in relation to the reference [1, 10]: 74% | dC/dT (rate of change in glucose concentration) [1, 10]: 27 | glucose concentration, t = 0 [1, 10]: 150 | glucose concentration, t = 60 [1, 10]: 159 | glucose concentration, t = 120 [1, 10]: 146 | glucose concentration, t = 180 [1, 10]: 106 | glucose concentration, t = 240 [1, 10]: 27 | F = the rate of change in glucose concentration in relation to the reference [1, 11]: 63% | dC/dT (rate of change in glucose concentration) [1, 11]: 23 | glucose concentration, t = 0 [1, 11]: 144 | glucose concentration, t = 60 [1, 11]: 149 | glucose concentration, t = 120 [1, 11]: 147 | glucose concentration, t = 180 [1, 11]: 104 | glucose concentration, t = 240 [1, 11]: 23 | F = the rate of change in glucose concentration in relation to the reference [1, 14]: 68% | dC/dT (rate of change in glucose concentration) [1, 14]: 25 | glucose concentration, t = 0 [1, 14]: 148 | glucose concentration, t = 60 [1, 14]: 154 | glucose concentration, t = 120 [1, 14]: 148 | glucose concentration, t = 180 [1, 14]: 105 | glucose concentration, t = 240 [1, 14]: 25 | F = the rate of change in glucose concentration in relation to the reference [1, 15]: 74% | dC/dT (rate of change in glucose concentration) [1, 15]: 27 | glucose concentration, t = 0 [1, 15]: 148 | glucose concentration, t = 60 [1, 15]: 155 | glucose concentration, t = 120 [1, 15]: 140 | glucose concentration, t = 180 [1, 15]: 102 | glucose concentration, t = 240 [1, 15]: 27 | MIC, EUCAST, range in parentheses [3, 12]: (2-8) ug/mL | MIC, EUCAST [3, 13]: 4 mg/L (≈ 9.36 µM)
